36 compounds from PubChem BioAssay AID602236 (The Scripps Research Institute Molecular Screening Center, 2012) can be followed below.

Calls of active or inactive are those of the source.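 How the source made its calls: active means IC50 of 10 µM or lower; inactive means IC50 above 10 µM.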 A value given as a limit tells only on which side of the number the result lay.

The test system of the assay is HEK-293 Gal4-VP16 UAS luciferase reporter, luminescence. Description: GAL4-VP16 reporter repression curves – cell-based, luminescence, high throughput, SRC1 series, counter-screen for SRC1 inhibitor project, dose response (AID 602236).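 Further: inhibitor potency where hits lower luciferase light from Gal4-VP16 transactivation.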 A general note: A counterscreen serves to expose hits that act by an unwanted route or on another target.
As to `Cc1ccc(O)c(C(=O)c2cnn(C(=O)COc3ccc(Cl)cc3)c2)c1`, the IC50 (usually the point on the concentration scale where inhibition reaches its midpoint) is 27.6 µM (inactive). Turning to `Cc1sc2ncnc(N3CCC(C(=O)Nc4cc(S(C)(=O)=O)ccc4Cl)CC3)c2c1C`, the IC50 was 20.7 µM (inactive).

Turning to `CC(=O)NC(c1cc(Cl)c2cccnc2c1O)C1CC1` (stereo unspecified), the IC50 was 9.3 µM. `N#Cc1c2ccc(O)cc2n2ccccc12`: the IC50 is > 35.9 µM (inactive). For the compound `CCN(Cc1ccncc1)C(=O)CC1C(=O)NCCN1Cc1ccc(F)c(F)c1` (stereo unspecified), the IC50 was 15.8 µM (inactive). Take `CCOc1cccc(/C=N/NC(=O)c2cc(C3CC3)[nH]n2)c1O`: the IC50 was 11.2 µM (inactive).

As for `COC(CN(C(=O)CCl)C(C(=O)NC1CCCCC1)c1ccccc1C)OC` (stereo unspecified), the IC50 was 8.47 µM.

For the compound `COc1ccc(-c2cnc(N)nc2-c2ccc(OC)cc2O)cc1`, the IC50 was 11.7 µM (inactive).

As to `O=C(Nc1cccc(C(F)(F)F)c1)Nc1nnc([C@@H]2C[C@H](O)[C@@H](CO)O2)s1`, the IC50 was 7.89 µM.

With `Oc1ccc(C=NNc2ccccn2)c(O)c1`, the IC50 is > 35.9 µM (inactive). The value for `O=C1NCCc2c1[nH]c1ccc([N+](=O)[O-])cc21` was 32 µM (inactive); that for `CNc1ncnc(Sc2nc(N)nc3nc[nH]c23)c1[N+](=O)[O-]` was 5.79 µM.

For `CCN(C(=O)c1cccc(S(=O)(=O)N(C)C)c1)C12CC3CC(CC(C3)C1)C2`, the IC50 was 15.7 µM (inactive). With `O=C(Nc1cccc2c1CCCC2)c1cc([N+](=O)[O-])ccc1Cl`, the IC50 is 9.3 µM. Regarding `NC(=S)NN=Cc1ccc(OC(=O)COc2cc(Cl)c(Cl)cc2Cl)cn1`, the IC50 was > 35.9 µM (inactive). `CC(C)n1c(-c2cccnc2)nc2cnccc21`: the IC50 was 9.47 µM. Take `O=C1CCC/C1=c1\s/c(=C/c2cccnc2)c(=O)n1-c1ccccc1`: the IC50 is 11.2 µM (inactive). Turning to `Cc1noc(/C=C/c2ccco2)c1S(=O)(=O)N1CCC(C(=O)Nc2ccc(Cl)cn2)CC1`, the IC50 is 16.1 µM (inactive).

As to `COc1ccc(Cc2nnc(SCc3ccc([N+](=O)[O-])cc3)o2)cc1`, the IC50 is 15.3 µM (inactive). `Cc1ccc(/C=C2/SC(=S)N(CCCC(=O)Nc3ccc(O)cc3)C2=O)cc1`: the IC50 is > 12 µM (inactive). Turning to `CN1CCN(c2cccc3c2C(=O)c2ccccc2C3=O)CC1`, the IC50 is 23.8 µM (inactive). The value for `O=C(COC(=O)c1ccc[nH]c1=O)Nc1ccc(N2CCCCC2)cc1` was > 35.9 µM (inactive); that for `COc1ccc(Oc2nc3c(c(=O)n(C)c(=O)n3C)n2C)cc1` was 16.6 µM (inactive); that for `CNc1cccnc1C=NNC(N)=S` was 18.4 µM (inactive). Take `CCCCC(=O)OCC(=O)C1(O)Cc2c(O)c3c(c(O)c2C(OC2CC(NC(=O)C(F)(F)F)C(O)C(C)O2)C1)C(=O)c1c(OC)cccc1C3=O` (stereo unspecified): the IC50 was 6.82 µM. As to `O=C(CCCOc1ccc(Cl)cc1Cl)N/N=C/c1ccccc1O`, the IC50 was 4.77 µM. For the compound `O=[N+]([O-])c1cccc2c1ccc1ncccc12`, the IC50 was 12.8 µM (inactive).

For the compound `CCCCC(=O)Nc1cccn2ncnc12`, the IC50 is > 35.9 µM (inactive). Regarding `Cc1ccc2occ(/C=N/NC(=O)[C@@H](N)Cc3ccccc3)c(=O)c2c1`, the IC50 was 12.7 µM (inactive). The value for `CCOc1cc(C(N)=O)cc(Br)c1OC` was 17.1 µM (inactive); that for `CCOc1ccc(-c2noc(CCC(=O)O)n2)cc1` was > 35.9 µM (inactive); that for `O=C(CCCc1nc(-c2ccccc2Cl)no1)NC1CCCC1` was 13.6 µM (inactive). For the compound `Cc1ccc(C)c(NC(=O)c2ccccc2NS(=O)(=O)c2cc([N+](=O)[O-])ccc2C)c1`, the IC50 is 3.98 µM. With `CCc1nc(N)nc(N)c1-c1ccc(Cl)c([N+](=O)[O-])c1`, the IC50 is > 35.8 µM (inactive). Consider `O=C(CCC1CCCC1)Nc1ccc(C(=O)NCc2cccnc2)cc1`, for which the IC50 was 7.75 µM.

Consider `CCCS(=O)(=O)c1c(S(=O)(=O)CCC)c2c(C)cccn2c1C(=O)N/N=C/c1cc(O)cc(O)c1`, for which the IC50 was 5 µM.
